Measured values as given in ChEMBL document CHEMBL4627357, “An osteoinductive effect of phytol on mouse mesenchymal stem cells (C3H10T1/2) towards osteoblasts” (Bioorg Med Chem Lett, 2020).
Calls of active or inactive are those of the source.

What was measured:
[1] = system: C3H 10T1/2; assay: Induction of osteoblast differentiation in mouse C3H10T1/2 cells assessed as increase in Runx2 mRNA expression at 40 uM measured after 3 to 7 days by RT-qPCR analysis; format: functional, cell-based
[2] = system: C3H 10T1/2; assay: Induction of osteoblast differentiation in mouse C3H10T1/2 cells assessed as increase in ALP mRNA expression at 40 uM measured after 3 days by RT-qPCR analysis; format: functional, cell-based
[3] = system: C3H 10T1/2; assay: Induction of osteoblast differentiation in mouse C3H10T1/2 cells assessed as increase in type-1 collagen mRNA expression at 40 uM measured after 7 days by RT-qPCR analysis; format: functional, cell-based
[4] = system: C3H 10T1/2; assay: Cytotoxicity against mouse C3H10T1/2 cells assessed as dead cells at 40 uM measured after 72 hrs by MUSE cell analyzer (reference value: 4.2%); format: cell-based; conditions: c3h 10t1/2, 72 h
[5] = Cytotoxicity against mouse C3H10T1/2 cells assessed as live cells at 40 uM measured after 72 hrs by MUSE cell analyzer (reference value: 95.8%); format: cell-based, C3H 10T1/2; conditions: read-out: Activity
[6] = system: C3H 10T1/2; assay: Cytotoxicity against mouse C3H10T1/2 cells assessed as spindle shaped and flattened appearance at 40 uM measured after 72 hrs by FDA staining based assay; format: cell-based; conditions: c3h 10t1/2, 72 h
[7] = system: C3H 10T1/2; assay: Induction of osteoblast differentiation in mouse C3H10T1/2 cells assessed as increase in ALP mRNA expression at 40 uM measured after 7 days by RT-qPCR analysis; format: functional, cell-based
[8] = system: C3H 10T1/2; assay: Induction of osteoblast differentiation in mouse C3H10T1/2 cells assessed as increase in type-1 collagen mRNA expression at 40 uM measured after 3 days by RT-qPCR analysis; format: functional, cell-based
[9] = system: C3H 10T1/2; assay: Induction of osteoblast differentiation in mouse C3H10T1/2 cells assessed as increase in calcium deposition at 40 uM measured after 14 days by alizarin red staining based assay; format: functional, cell-based
[10] = system: C3H 10T1/2; assay: Induction of osteoblast differentiation in mouse C3H10T1/2 cells assessed as downregulation of Smad7 protein expression at 40 uM measured after 7 days by Western blot analysis; format: functional, cell-based
[11] = system: C3H 10T1/2; assay: Induction of osteoblast differentiation in mouse C3H10T1/2 cells assessed as increase in osteocalcin mRNA expression at 40 uM measured after 3 to 7 days by RT-qPCR analysis; format: functional, cell-based
[12] = system: C3H 10T1/2; assay: Upregulation of Runx2 mRNA expression in mouse C3H10T1/2 at 40 uM measured after 72 hrs by SYBR green based RT-qPCR analysis; format: functional, cell-based
[13] = system: C3H 10T1/2; assay: Induction of osteoblast differentiation in mouse C3H10T1/2 cells assessed as increase in osterix mRNA expression at 40 uM measured after 3 to 7 days by RT-qPCR analysis; format: functional, cell-based
[14] = system: C3H 10T1/2; assay: Induction of osteoblast differentiation in mouse C3H10T1/2 cells assessed as upregulation in Runx2 protein expression at 40 uM measured after 7 days by Western blot analysis; format: functional, cell-based
[15] = system: C3H 10T1/2; assay: Induction of osteoblast differentiation in mouse C3H10T1/2 cells assessed as upregulation of miRNA-21a mRNA expression at 40 uM measured after 7 days by RT-qPCR analysis; format: functional, cell-based
[16] = system: C3H 10T1/2; assay: Induction of osteoblast differentiation in mouse C3H10T1/2 cells assessed as formation of mineralized nodule at 40 uM measured after 14 days by von-Kossa staining based assay; format: functional, cell-based

C/C(=C\CO)CCC[C@H](C)CCC[C@H](C)CCCC(C)C [TRANS-PHYTOL]
Non-Toxic: Activity [6]
96%: viability at 72 h, 40 µM [5]
active: Activity [1] | Activity [3] | Activity [7] | Activity [9] | Activity [10] | Activity [12] | Activity [14] | Activity [15] | Activity [16]
4%: Activity [4]
inactive: Activity [2] | Activity [8] | Activity [11] | Activity [13]
